Measurements as given in patent US5380651A, “Method of determining odorant compounds and antagonists of odorants using a primary culture of olfactory neurons” (The Johns Hopkins University, priority 1993, dated 1995).
Entries after “also recorded” stand apart in the source; their conditions may differ.

How the values were obtained:
[1] = system: Primary olfactory neurons; assay: cyclic AMP levels (RIA) in primary olfactory neurons exposed to odorant; assay type: cell-based, rat; conditions: 10 uM IBMP
Description: Olfactory tissue from neonatal rats was collected, minced, dissociated in enzymes and plated on chamber slides pretreated with laminin as described below.
Approximately 3 litters or 28-32 pups were used per prep. The 2-3 day old rat pups were sacrificed by decapitation, and olfactory tissue dissected and immediately placed in modified Eagle's medium (MEM) containing 4.8 g/l of HEPES buffer, designated MEM-AIR. The turbinates were transferred twice through fresh MEM-AIR to minimize contamination. Tissue was then centrifuged at 700×g for 7 min. After the supernatant was decanted, the tissue was minced to achieve tissue fragments of approximately 1 mm in size, resuspended in MEM-AIR and centrifuged at 700×g for 7 min. Tissue was then placed in 30 ml of MEM-AIR containing 1% (w/v) BSA, RIA grade (Sigma, St. Louis, Mo.), 1 mg/ml hyaluronidase (Sigma), 50 ug/ml DNAse (Sigma), 1 mg/ml collagenase (Worthington Biochemicals, Freehold, N.J.), and 5 mg/ml dispase (Boehringer-Mannheim Biochemicals, Indianapolis, Ind.), and incubated with agitation for 1 hr at 37° C. At the end of incubation, the cell suspension was triturated 10 times with a 10 ml plastic piper and passed through a 150 micron wire mesh. The cell suspension was then centrifuged at 500×g for 5 min. […]

[2] = system: NG-108 cells; assay: cyclic AMP levels (RIA) in NG-108 cells exposed to odorant; assay type: cell-based; conditions: similar treatment
[3] = system: olfactory neurons (primary cultures); assay: effect of substrate matrix substances on morphology and plating efficiency of olfactory neurons; assay type: cell-based, rat; conditions: for plating efficiency / process (neurite) outgrowth: coated slides, phase contrast and anti-vimentin immunofluorescence
Procedure: To determine the role of substrate matrix substances on plating efficiency and on cellular selection, a number of different substrates were tested.
Two chamber slides were pretreated in a number of ways. For laminin coating, 1 ml of MDV containing 25 ug/ml laminin was plated onto glass two-chamber slides overnight at 37° C.; before use, the slides were rinsed with MDV. For fibronectin, slides were treated with a solution containing 1 ml of MDV containing 20 ug/ml fibronectin (Collaborative Research), incubated overnight at 37° C., and rinsed with MDV prior to use. For polyornithine (PORN, Sigma Chemicals), a solution at a concentration of 1 mg/ml PORN in deionized distilled water was added to slides, incubated 1 hr at 37° C., rinsed twice with deionized distilled water, and rinsed once with MDV prior to use. When laminin was used on PORN-treated slides, slides were treated with PORN and then laminin in the usual manner. Coating of slides with poly-D-lysine was performed analogous to treatment with polyornithine. Heparan sulfate was diluted in MDV to a concentration of 10 ug/ml and 1 ml was placed on a slide, maintained overnight at 37° C., and rinsed with deionized distilled water prior to use. Collagen (Gibco) or collagen IV (Collaborative Research) was prepared as a 50 ug/ml solution in deionized distilled water and 1 ml of this solution utilized per slide. In the case of collagen, the solution was allowed to air dry. Collagen IV was maintained overnight at room temperature, aspirated, air dried and then rinsed twice with deionized distilled water prior to use. When laminin was used with collagen IV, collagen IV was prepared as described, and laminin was subsequently added in the usual manner. Matrigel (Collaborative Research) was utilized according to manufacturer's instructions.
Primary cultures were prepared as describe above and plated onto a number of different substrates and examined by phase contrast as well as immunofluorescence with antivimentin antisera (FIG. 6).
Matrigel was also examined as a substrate (FIG. 7).

[4] = system: olfactory neurons (primary cultures); assay: effect of NGF on olfactory neuron survival and neurite extension; assay type: cell-based, rat
Procedure: Approximately 3 litters or 28-32 pups were used per prep. The 2-3 day old rat pups were sacrificed by decapitation, and olfactory tissue dissected and immediately placed in modified Eagle's medium (MEM) containing 4.8 g/l of HEPES buffer, designated MEM-AIR. The turbinates were transferred twice through fresh MEM-AIR to minimize contamination. Tissue was then centrifuged at 700×g for 7 min. After the supernatant was decanted, the tissue was minced to achieve tissue fragments of approximately 1 mm in size, resuspended in MEM-AIR and centrifuged at 700×g for 7 min. Tissue was then placed in 30 ml of MEM-AIR containing 1% (w/v) BSA, RIA grade (Sigma, St. Louis, Mo.), 1 mg/ml hyaluronidase (Sigma), 50 ug/ml DNAse (Sigma), 1 mg/ml collagenase (Worthington Biochemicals, Freehold, N.J.), and 5 mg/ml dispase (Boehringer-Mannheim Biochemicals, Indianapolis, Ind.), and incubated with agitation for 1 hr at 37° C. At the end of incubation, the cell suspension was triturated 10 times with a 10 ml plastic piper and passed through a 150 micron wire mesh. The cell suspension was then centrifuged at 500×g for 5 min. The supernatant was aspirated and the cell pellet resuspended in plating medium composed of modified Eagle's medium containing D-valine (MDV, Gibco, Grand Island, N.Y.) containing 15% (v/v) dialyzed fetal calf serum (dFCS, Gibco), 5% (v/v) NU serum (Collaborative Research, Bedford, Mass.), 10 uM cytosine arabinoside (ara C) and 25 ng/ml nerve growth factor (NGF, Collaborative Research). After resuspension, cells were successively filtered through 50 micron and 10 micron nylon mesh filters (Small Parts, Miami, Fla.), to remove any remaining undigested clumps of cells and epithelial cells. Cells were plated at a density of 1×10^6 cells per cm^2 into tissue culture dish (Falcon, Lincoln Park, N.J.) or Labtek tissue culture slides (Nunc, Naperville, Ill.) coated with MDV containing laminin at 25 ug/ml (Collaborative Research). Cultures were placed in a humidified 37° C. incubator receiving 5% CO2. […]

[5] = without NGF vs 25 ng/ml NGF, by 3 days in culture

COc1nccnc1CC(C)C [IBMP, 2-isobutyl-3-methoxypyrazine]
change of intracellular cyclic AMP levels [1]: rapid, transient rise in intracellular cyclic AMP levels | change of cyclic AMP levels [2]: does not alter cyclic AMP levels

collagen
plating efficiency [3]: somewhat better plating efficiency than poly-D-lysine, polyornithine or heparan-sulfate | process (neurite) outgrowth [3]: process outgrowth is still stunted

fibronectin
process (neurite) outgrowth [3]: the processes are shorter

laminin
plating efficiency [3]: optimal plating efficiency | neurite extension and aggregation of cells ([3]; duplicate cell suspensions, laminin vs matrigel): cells extend neurites in a random fashion, with no tendency to reaggregate

B1: NGF: nerve growth factor (NGF, Collaborative Research) (protein, UniProt P01139 122-241, looked up)
Beta-nerve growth factor: SSTHPVFHMGEFSVCDSVSVWVGDKTTATDIKGKEVTVLAEVNINNSVFRQYFFETKCRASNPVESGCRGIDSKHWNSYCTTTHTFVKALTTDEKQAAWRFIRIDTACVCVLSRKATRRG
modifications: Beta-nerve growth factor
role in olfactory neuronal survival and neurite extension ([4]; 25 ng/ml NGF in medium): necessary for survival of olfactory neurons; also recorded: affects both olfactory neuronal survival and neurite extension in culture | decrease of cell viability in cells maintained without NGF [4, 5]: approximately 85% | process extension in cells maintained without NGF [4, 5]: lose process extension
